Measured values as given in ChEMBL document CHEMBL1909046, “DrugMatrix in vitro pharmacology data”.
pIC50, pKi: −log10 of the molar value.

Columns and labels:
[1] = molecular target: Beta-3 adrenergic receptor (Homo sapiens, UniProt P13945); assay: DRUGMATRIX: Adrenergic beta3 radioligand binding (ligand: [125I] Cyanopindolol); format: cell membranes, HEK293, Membrane; conditions: Not Active = under 50% inhibition at 10 µM; for IC50 / Ki: hek293
[2] = molecular target: 5-hydroxytryptamine receptor 4 (Cavia porcellus, UniProt O70528); format: cell membranes, Dunkin-Hartley, Striatum, Membrane; further: in other assays of this panel Not Active means under 50% inhibition at 10 µM
Melanocortin receptor 4 = Melanocortin receptor 4 (Homo sapiens, UniProt P32245); format: cell membranes, HEK293, Membrane; conditions: hek293; further: in other assays of this panel Not Active means under 50% inhibition at 10 µM
[3] = molecular target: T1, Muscarinic acetylcholine receptor M2 (Homo sapiens, UniProt P08172); format: cell membranes, CHO-K1, Membrane; conditions: cho-k1; further: in other assays of this panel Not Active means under 50% inhibition at 10 µM
T1 sequence (P08172 whole entry): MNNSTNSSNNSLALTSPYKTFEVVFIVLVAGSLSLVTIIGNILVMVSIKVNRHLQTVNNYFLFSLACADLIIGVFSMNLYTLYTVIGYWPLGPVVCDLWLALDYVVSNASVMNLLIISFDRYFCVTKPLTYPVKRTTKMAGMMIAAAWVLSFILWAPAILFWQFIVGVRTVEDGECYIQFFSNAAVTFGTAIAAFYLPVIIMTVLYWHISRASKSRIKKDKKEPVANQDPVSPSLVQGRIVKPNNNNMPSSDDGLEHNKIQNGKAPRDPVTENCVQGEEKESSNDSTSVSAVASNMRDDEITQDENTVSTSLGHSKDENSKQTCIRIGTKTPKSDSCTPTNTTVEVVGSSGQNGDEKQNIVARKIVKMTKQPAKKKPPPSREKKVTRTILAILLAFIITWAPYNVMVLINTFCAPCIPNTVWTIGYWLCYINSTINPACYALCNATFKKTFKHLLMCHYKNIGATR

[4] = molecular target: Voltage-gated inwardly rectifying potassium channel KCNH2 (Homo sapiens, UniProt Q12809); conditions: hek293; further: in other assays of this panel Not Active means under 50% inhibition at 10 µM
Sequence of Voltage-gated inwardly rectifying potassium channel KCNH2 (Q12809 whole entry): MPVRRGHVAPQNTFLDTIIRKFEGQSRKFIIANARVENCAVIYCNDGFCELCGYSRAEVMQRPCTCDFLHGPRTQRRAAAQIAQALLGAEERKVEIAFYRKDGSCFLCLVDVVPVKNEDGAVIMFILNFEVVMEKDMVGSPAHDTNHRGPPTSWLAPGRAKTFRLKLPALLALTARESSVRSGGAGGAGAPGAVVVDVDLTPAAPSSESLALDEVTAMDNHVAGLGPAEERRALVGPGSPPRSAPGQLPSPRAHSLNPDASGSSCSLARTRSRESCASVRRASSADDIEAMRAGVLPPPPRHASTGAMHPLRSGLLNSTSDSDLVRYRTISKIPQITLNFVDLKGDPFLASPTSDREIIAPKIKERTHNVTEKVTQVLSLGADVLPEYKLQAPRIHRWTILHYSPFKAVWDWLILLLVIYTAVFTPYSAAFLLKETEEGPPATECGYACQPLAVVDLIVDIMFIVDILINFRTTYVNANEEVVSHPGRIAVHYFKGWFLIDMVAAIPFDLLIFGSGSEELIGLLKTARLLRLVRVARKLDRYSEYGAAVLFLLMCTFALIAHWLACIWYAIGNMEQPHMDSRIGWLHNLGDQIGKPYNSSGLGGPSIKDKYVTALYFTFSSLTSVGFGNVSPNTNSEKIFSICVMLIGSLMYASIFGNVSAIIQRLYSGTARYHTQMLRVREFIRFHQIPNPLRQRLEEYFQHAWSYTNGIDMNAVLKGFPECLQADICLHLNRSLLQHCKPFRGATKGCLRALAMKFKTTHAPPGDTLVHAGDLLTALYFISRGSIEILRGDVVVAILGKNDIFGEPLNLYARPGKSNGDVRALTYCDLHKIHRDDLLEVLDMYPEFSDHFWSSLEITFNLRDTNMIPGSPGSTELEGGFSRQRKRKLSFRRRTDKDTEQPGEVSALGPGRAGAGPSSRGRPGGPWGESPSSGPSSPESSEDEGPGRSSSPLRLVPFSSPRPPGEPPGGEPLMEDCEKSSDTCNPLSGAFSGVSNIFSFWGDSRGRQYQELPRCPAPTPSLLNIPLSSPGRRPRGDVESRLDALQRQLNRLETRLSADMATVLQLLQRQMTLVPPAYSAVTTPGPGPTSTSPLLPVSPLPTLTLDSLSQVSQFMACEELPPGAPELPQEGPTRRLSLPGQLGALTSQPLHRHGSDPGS

Sequence of Beta-3 adrenergic receptor (P13945 whole entry): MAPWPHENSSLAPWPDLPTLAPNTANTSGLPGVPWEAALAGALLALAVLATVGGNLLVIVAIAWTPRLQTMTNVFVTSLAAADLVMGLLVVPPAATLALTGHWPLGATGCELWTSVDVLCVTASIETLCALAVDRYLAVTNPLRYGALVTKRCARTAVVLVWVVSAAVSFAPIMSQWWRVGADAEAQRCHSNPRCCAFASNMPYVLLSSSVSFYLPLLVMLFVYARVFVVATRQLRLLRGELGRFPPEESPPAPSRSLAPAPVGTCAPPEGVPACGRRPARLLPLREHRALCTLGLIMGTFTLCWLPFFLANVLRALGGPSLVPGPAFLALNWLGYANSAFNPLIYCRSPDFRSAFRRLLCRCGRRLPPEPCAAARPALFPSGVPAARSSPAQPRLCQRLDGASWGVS
Sequence of Melanocortin receptor 4 (P32245 whole entry): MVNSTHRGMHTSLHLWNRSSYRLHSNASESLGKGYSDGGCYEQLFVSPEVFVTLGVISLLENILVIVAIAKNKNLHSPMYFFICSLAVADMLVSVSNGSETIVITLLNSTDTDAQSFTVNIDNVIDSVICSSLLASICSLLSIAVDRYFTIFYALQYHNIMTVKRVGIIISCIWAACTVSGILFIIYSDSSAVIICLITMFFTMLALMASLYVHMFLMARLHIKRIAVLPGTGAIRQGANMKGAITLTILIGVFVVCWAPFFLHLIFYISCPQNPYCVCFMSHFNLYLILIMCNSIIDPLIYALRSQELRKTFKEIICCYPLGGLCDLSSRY
Sequence of 5-hydroxytryptamine receptor 4 (O70528 whole entry): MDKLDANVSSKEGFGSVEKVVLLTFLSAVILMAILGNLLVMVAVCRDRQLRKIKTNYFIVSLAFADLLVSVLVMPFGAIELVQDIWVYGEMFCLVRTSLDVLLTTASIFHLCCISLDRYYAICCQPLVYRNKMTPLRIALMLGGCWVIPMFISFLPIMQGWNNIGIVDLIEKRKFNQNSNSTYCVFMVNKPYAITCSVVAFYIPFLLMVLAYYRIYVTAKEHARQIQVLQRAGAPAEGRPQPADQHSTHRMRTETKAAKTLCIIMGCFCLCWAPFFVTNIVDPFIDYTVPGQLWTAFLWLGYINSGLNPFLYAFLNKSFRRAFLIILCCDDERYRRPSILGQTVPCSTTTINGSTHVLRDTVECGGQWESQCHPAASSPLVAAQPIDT

Compound	IC50 [1]	Ki [1]	IC50 [2]	Ki [2]	IC50 (Melanocortin receptor 4)	Ki (Melanocortin receptor 4)	IC50 [3]	Ki [3]	IC50 [4]	Ki [4]	pIC50 ([1]; read-out: IC50)	pKi ([1]; read-out: Ki)
NYSTATIN	Not Active	Not Active	Not Active	Not Active	Not Active	Not Active	Not Active	Not Active	Not Active	Not Active	–	–
Cc1cc2c(OCC(CNC(C)(C)C)OC(=O)c3ccccc3)cccc2[nH]1 (stereo unspecified) [BOPINDOLOL]	–	–	Not Active	–	Not Active	–	Not Active	–	Not Active	Not Active	6.34	6.46
CC(=O)Oc1ccc(C(c2ccc(OC(C)=O)cc2)c2ccccn2)cc1 [BISACODYL]	Not Active	–	Not Active	–	Not Active	–	Not Active	–	Not Active	Not Active	–	–
C[C@@H](CO)NC(=O)[C@@H]1C=C2c3cccc4[nH]cc(c34)C[C@H]2N(C)C1 [ERGONOVINE]	Not Active	–	Not Active	–	Not Active	–	Not Active	–	Not Active	Not Active	–	–
CC(=O)O[C@H]1C(=O)[C@@]2(C)[C@H]([C@H](OC(=O)c3ccccc3)[C@]3(O)C[C@H](OC(=O)[C@H](O)[C@@H](NC(=O)c4ccccc4)c4ccccc4)C(C)=C1C3(C)C)[C@]1(OC(C)=O)CO[C@@H]1C[C@@H]2O [PACLITAXEL]	Not Active	–	Not Active	–	Not Active	–	Not Active	–	Not Active	Not Active	–	–
Nc1ccn([C@@H]2O[C@H](CO)[C@@H](O)C2(F)F)c(=O)n1 [GEMCITABINE]	Not Active	–	Not Active	–	Not Active	–	Not Active	–	Not Active	Not Active	–	–
CCC1(CCC(C)C)C(=O)NC(=O)NC1=O [AMOBARBITAL]	Not Active	–	Not Active	–	Not Active	–	Not Active	–	Not Active	Not Active	–	–
O=C(O)c1cccnc1Nc1cccc(C(F)(F)F)c1 [NIFLUMIC ACID]	Not Active	–	Not Active	–	Not Active	–	Not Active	–	Not Active	Not Active	–	–
Cn1c(=O)c2[nH]cnc2n(C)c1=O.Cn1c(=O)c2[nH]cnc2n(C)c1=O.NCCN [AMINOPHYLLINE]	Not Active	–	Not Active	–	Not Active	–	Not Active	–	Not Active	Not Active	–	–
GENTAMICIN	Not Active	Not Active	Not Active	Not Active	Not Active	Not Active	Not Active	Not Active	Not Active	Not Active	–	–
C=CCc1ccc(O)c(OC)c1 [EUGENOL]	Not Active	–	Not Active	–	Not Active	–	Not Active	–	Not Active	Not Active	–	–
COc1ccc2[nH]cc(CCNC(C)=O)c2c1 [MELATONIN]	Not Active	–	Not Active	–	Not Active	–	Not Active	–	Not Active	Not Active	–	–
N=C(N)NC(=O)Cc1c(Cl)cccc1Cl [GUANFACINE]	Not Active	–	Not Active	–	Not Active	–	Not Active	–	Not Active	Not Active	–	–
O=C(N/N=C/c1ccc([N+](=O)[O-])o1)c1cc([N+](=O)[O-])cc([N+](=O)[O-])c1O [NIFURSOL]	Not Active	–	Not Active	–	Not Active	–	Not Active	–	Not Active	Not Active	–	–
CC(C)NNC(=O)c1ccncc1 [IPRONIAZID]	Not Active	–	Not Active	–	Not Active	–	Not Active	–	Not Active	Not Active	–	–
COc1cc([C@@H]2c3cc4c(cc3[C@@H](O[C@@H]3O[C@@H]5CO[C@@H](C)O[C@H]5[C@H](O)[C@H]3O)[C@H]3COC(=O)[C@H]23)OCO4)cc(OC)c1O [ETOPOSIDE]	Not Active	–	Not Active	–	Not Active	–	Not Active	–	Not Active	Not Active	–	–
CC(C(=O)O)c1cccc(Oc2ccccc2)c1 (stereo unspecified) [FENOPROFEN]	Not Active	–	Not Active	–	Not Active	–	Not Active	–	Not Active	Not Active	–	–
